US20090208747A1, “Novel Crystalline Methods and Novel Crystalline and Amorphous forms of Halogenated Sugars” (V.B. MEDICARE PVT. LTD, priority 2006, published 2009)

Assays:
[1] = Analysis against JECFA specifications: solubility; type: physicochemical; conditions: in ethyl acetate
[2] = Stability testing as per ICH Guideline Q1A(R2), storage stability; type: physicochemical; conditions: for Appearance: storage condition not given
Description: Stability testing was done as per ICH Harmonised Tripaertite Guideline Stability Testing of New drug substances and Products Q1A(R2) issued by International Conference on Hamonization of technical requirements for registration of pharmaceuticals for human use and recommended for adoption at Step 4 of the ICH Process on 6 Feb.
Details are given on table nos 1 to 4 given in the following: […]

[3] = Accelerated stability test, sealed containers incubated at 50° C.; type: physicochemical; conditions: sealed container; for decline in percent assay: in first three days
Procedure: For extrapolating potential storage stability beyond one year, an accelerated storage stability test was conducted. In this test, crystalline TGS of small and large mean particle size was incubated at 50° C. in sealed containers. Percent assay and pH were tested after each 24 hours for five successive days. […] A three days' stability in accelerated stability test is extrapolated by Catani et al (2005) to 8 years of storage stability at ambient temperature.
All the three samples were taken in sealed containers and were incubated at 50° C. […]

Particle size analysis = conditions: for particle size distribution at 90%: 90% of particles below this size
Procedure: The TGS crystals obtained were tested for purity and particle size.
The solids obtained were tested for purity, particle size and X ray diffraction for the nature of solid obtained.

[4] = Fourth day, listed as Amorphous TGS

OC[C@H]1O[C@H](O[C@]2(CCl)O[C@H](CCl)[C@@H](O)[C@@H]2O)[C@H](O)[C@@H](O)[C@H]1Cl [Amorphous TGS small particle size, 1′-6′-Dichloro-1′-6′-DIDEOXY-β-Fructofuranasyl-4-chloro-4-deoxy-galactopyranoside]
Solubility [1]: water. Slightly | Assay ([2]; 25° C. ± 2° C. 60% RH ± 5% RH, 1st month): 99.34% | Assay ([2]; 25° C. ± 2° C. 60% RH ± 5% RH, 2nd month): 99.36% | Assay ([2]; 25° C. ± 2° C. 60% RH ± 5% RH, 3rd month): 99.32% | Assay ([2]; 25° C. ± 2° C. 60% RH ± 5% RH, 4th month): 99.36% | Assay ([2]; 25° C. ± 2° C. 60% RH ± 5% RH, 5th month): 99.28% | Assay ([2]; 25° C. ± 2° C. 60% RH ± 5% RH, 6th month): 99.23% | Assay ([2]; 25° C. ± 2° C. 60% RH ± 5% RH, 12th month): 99.22% | Assay ([2]; 25° C. ± 2° C. 60% RH ± 5% RH, 24th month): 99.14% | Assay ([2]; 30° C. ± 2° C. 65% RH ± 5% RH, 1st month): 99.84% | Assay ([2]; 30° C. ± 2° C. 65% RH ± 5% RH, 2nd month): 99.84% | Assay ([2]; 30° C. ± 2° C. 65% RH ± 5% RH, 3rd month): 99.62% | Assay ([2]; 30° C. ± 2° C. 65% RH ± 5% RH, 4th month): 99.65% | Assay ([2]; 30° C. ± 2° C. 65% RH ± 5% RH, 5th month): 99.58% | Assay ([2]; 30° C. ± 2° C. 65% RH ± 5% RH, 6th month): 99.53% | Assay ([2]; 30° C. ± 2° C. 65% RH ± 5% RH, 12th month): 99.62% | Assay ([2]; 30° C. ± 2° C. 65% RH ± 5% RH, 24th month): 99.32% | Assay ([2]; 40° C. ± 2° C. 75% RH ± 5% RH, 1st month): 99.68% | Assay ([2]; 40° C. ± 2° C. 75% RH ± 5% RH, 2nd month): 99.65% | Assay ([2]; 40° C. ± 2° C. 75% RH ± 5% RH, 3rd month): 99.67% | Assay ([2]; 40° C. ± 2° C. 75% RH ± 5% RH, 4th month): 99.58% | Assay ([2]; 40° C. ± 2° C. 75% RH ± 5% RH, 5th month): 99.52% | Assay ([2]; 40° C. ± 2° C. 75% RH ± 5% RH, 6th month): 99.46% | Assay ([2]; 40° C. ± 2° C. 75% RH ± 5% RH, 12th month): 99.52% | Assay ([2]; 40° C. ± 2° C. 75% RH ± 5% RH, 24th month): 99.12% | Assay ([2]; INITIAL (printed in the 40° C. ± 2° C. 75% RH ± 5% RH column)): 99.70% | stability in storage ([2]; storage): stable for at least one year in storage | Appearance ([2]; 1st month): Normal | Appearance ([2]; 2nd month): Normal | Appearance ([2]; 3rd month): Normal | Appearance ([2]; 4th month): Normal | Appearance ([2]; 5th month): Normal | Appearance ([2]; 6th month): Normal | Appearance ([2]; 12th month): Normal | Appearance ([2]; 24th month): Normal | Appearance ([2]; INITIAL): Normal | stability compared to the crystalline form ([2]; table 4): much more stable | PH ([3]; Fifth day): 7.06 | Assay (%) ([3]; Fifth day, listed as Amorphous TGS): 98.19% | PH ([3]; First day): 7.03 | Assay (%) ([3]; First day, listed as Amorphous TGS): 98.21% | Assay (%) [3, 4]: 98.18% | PH [3, 4]: 7.02 | PH ([3]; Second day): 7.03 | Assay (%) ([3]; Second day, listed as Amorphous TGS): 98.20% | PH ([3]; Sixth day): 7.05 | Assay (%) ([3]; Sixth day, listed as Amorphous TGS): 98.17% | Assay (%) ([3]; Third day, listed as Amorphous TGS): 98.24% | decline in percent assay ([3]; listed as Amorphous form): 0.08% | decline in percent assay ([3]; listed as amorphous form): 0.08% | decline in pH ([3]; over three days): 0.08 units | particle size distribution at 90% (Particle size analysis; listed as Example 3): below 6 microns | particle size distribution at 90% (Particle size analysis; listed as amorphous product): less than 6 microns | largest particle size (Particle size analysis; listed as amorphous form): ≤ 14 microns
